Experimental data from patent publication US11534412B2, “Application of totarol and pharmaceutical composition containing totarol” (Emergopharm SP. Z O.O. SP.K., priority 2017, dated 2022).

Experiments:
Solubility in water = assay type: physicochemical
[1] = system: Gardnerella vaginalis - clinical strain; assay: Determination of the MIC value of totarol, broth dilution in 96-well plates with OD and quantitative culture; assay type: cell-based; details: for OD, average of 3 measurements: 620 nm
Protocol: Test of antibacterial activity of totarol using DMI (dimethylisosorbide) as a solvent.
A suspension of 0.5 McF in physiological saline (suspension density 10^8 cfu/ml) was prepared from a 24-hour culture of a standard strain. 1 ml of the suspension was collected to 9 ml of a TSB broth ([…]). Suspensions with a dilution of 10^−6 were prepared in the described way. A suspension with a cell density of 10^5 cfu/ml was selected for further investigations. For each strain, 2 96-well plates were prepared: the first one was intended for the OD measurement, the second one—for quantitative culture on solid media. • A/ to wells B1-D1, B2-D2 and B-D 4-11, 100 µl of the broth were added; • B/ to wells B3-D3, 200 µl of the broth were added; • C/ to wells B1-D1, 1 µl of stock I was added; • D/ to wells B2-D2, 1 µl of stock II was added; • E/ to wells B3-D3, 2 µl of stock III were added. Using a multichannel pipette, 100 µl of the sample were collected from each of the B3-D3 wells and placed in wells B4-D4 (mixing by sucking the content in and letting it out for 5 times). The pipette tips were replaced and 100 µl of the content were collected from of the B4-D4 wells, and placed in wells B5-D5, mixing as previously. These operations were repeated through the wells B11-D11. The content in the B11-D11 wells was mixed, and 100 µl of the fluid were collected and discarded. This way, a series of dilutions of totarol samples in DMI in the range of 0.32% to 0.0004% was obtained. Then, 100 µl of a corresponding bacterial culture were added to the wells B, C, D 1-11. In consequence, a change in the final concentration range occurred, to 0.16%-0.0002%. Control Preparation: • Negative control: 100 µl of the broth+1 pl DMI were added to the Al well. • Positive control (I): 100 µl of the broth with the bacterial culture were added to the wells E1-G1. • Diluent positive control (II): 100 µl of the broth with the bacterial culture+1 pl DMI were added to the wells E2-G2. The OD value in the individual wells was read at the wavelength of 620 nm (read time 0). From the second 96-well plate, a culture was inoculated by a quantitative method from every dilution onto a well with a proper solid medium, and incubated for 24 h at 37° C. under aerobic or anaerobic conditions, depending on the strain. The plates were incubated under aerobic conditions or in an atmosphere of an elevated CO2 concentration (for the strains requiring it) in an incubator at 37° C. The OD was read after 8 h, 16 h, and 24 h, respectively. Before every OD measurement, the contents of the wells were mixed delicately. In parallel to the OD readout, cultures we inoculated from the second 96-well plate, from every dilution, into plates with a proper solid medium, and incubated for 24 h at 37° C., under aerobic or anaerobic conditions. For the analysis of the experimental results, an average value of the OD measurement obtained from three repetitions in the individual times (0, 8, 16, and 24 h) for the individual microbes (Gardnerella vaginalis, Streptococcus agalactiae, Enterococcus faecalis, Lactobacillus gasseri/plantarum) was taken. Additionally, the number of bacteria grown on solid media was taken into account. The results of the tests confirm the specific, concentration-dependent selectiveness, and the high antibacterial effectiveness of totarol against the pathogenic microorganisms: Gardnerella vaginalis, Streptococcus agalactiae, Enterococcus faecalis at low MIC values safe for bacteria of the Lactobacillus genus.

solubility in water (Solubility in water): complete lack of solubility in water
MIC value ([1]; G. vaginalis): 0.005%
difference in values of MIC concentrations ([1]; bacilli of the Lactobacillus genus versus Gardnerella vaginalis): approximately 10 fold
Compound: CC(C)c1c(O)ccc2c1CC[C@H]1C(C)(C)CCC[C@]21C [Totarol, totarol]
viable count by quantitative culture (cfu/ml) ([1]; totarol 0.0002%, 0 h): 1.5 × 10^5 cfu/ml
OD, average of 3 measurements ([1]; totarol 0.0002%, 0 h): 0.313
viable count by quantitative culture (cfu/ml) ([1]; totarol 0.0002%, 8 h): 2 × 10^5 cfu/ml
OD, average of 3 measurements ([1]; totarol 0.0002%, 8 h): 0.328
viable count by quantitative culture (cfu/ml) ([1]; totarol 0.0002%, 16 h): 2 × 10^5 cfu/ml
OD, average of 3 measurements ([1]; totarol 0.0002%, 16 h): 0.364
viable count by quantitative culture (cfu/ml) ([1]; totarol 0.0002%, 24 h): 2.2 × 10^5 cfu/ml
OD, average of 3 measurements ([1]; totarol 0.0002%, 24 h): 0.398
viable count by quantitative culture (cfu/ml) ([1]; totarol 0.0004%, 0 h): 2.2 × 10^5 cfu/ml
OD, average of 3 measurements ([1]; totarol 0.0004%, 0 h): 0.326
viable count by quantitative culture (cfu/ml) ([1]; totarol 0.0004%, 8 h): 2 × 10^5 cfu/ml
OD, average of 3 measurements ([1]; totarol 0.0004%, 8 h): 0.334
viable count by quantitative culture (cfu/ml) ([1]; totarol 0.0004%, 16 h): 4.9 × 10^5 cfu/ml
OD, average of 3 measurements ([1]; totarol 0.0004%, 16 h): 0.362
viable count by quantitative culture (cfu/ml) ([1]; totarol 0.0004%, 24 h): 3.9 × 10^5 cfu/ml
OD, average of 3 measurements ([1]; totarol 0.0004%, 24 h): 0.390
viable count by quantitative culture (cfu/ml) ([1]; totarol 0.0007%, 0 h): 9 × 10^4 cfu/ml
OD, average of 3 measurements ([1]; totarol 0.0007%, 0 h): 0.315
viable count by quantitative culture (cfu/ml) ([1]; totarol 0.0007%, 8 h): 6 × 10^4 cfu/ml
OD, average of 3 measurements ([1]; totarol 0.0007%, 8 h): 0.307
viable count by quantitative culture (cfu/ml) ([1]; totarol 0.0007%, 16 h): 2.1 × 10^5 cfu/ml
OD, average of 3 measurements ([1]; totarol 0.0007%, 16 h): 0.326
viable count by quantitative culture (cfu/ml) ([1]; totarol 0.0007%, 24 h): 3.8 × 10^5 cfu/ml
OD, average of 3 measurements ([1]; totarol 0.0007%, 24 h): 0.346
viable count by quantitative culture (cfu/ml) ([1]; totarol 0.0013%, 0 h): 1 × 10^5 cfu/ml
OD, average of 3 measurements ([1]; totarol 0.0013%, 0 h): 0.321
viable count by quantitative culture (cfu/ml) ([1]; totarol 0.0013%, 8 h): 2.7 × 10^4 cfu/ml
OD, average of 3 measurements ([1]; totarol 0.0013%, 8 h): 0.314
viable count by quantitative culture (cfu/ml) ([1]; totarol 0.0013%, 16 h): 6.2 × 10^5 cfu/ml
OD, average of 3 measurements ([1]; totarol 0.0013%, 16 h): 0.318
viable count by quantitative culture (cfu/ml) ([1]; totarol 0.0013%, 24 h): 1.2 × 10^5 cfu/ml
OD, average of 3 measurements ([1]; totarol 0.0013%, 24 h): 0.322
viable count by quantitative culture (cfu/ml) ([1]; totarol 0.0025%, 0 h): 1.3 × 10^5 cfu/ml
OD, average of 3 measurements ([1]; totarol 0.0025%, 0 h): 0.312
viable count by quantitative culture (cfu/ml) ([1]; totarol 0.0025%, 8 h): 5 × 10^4 cfu/ml
OD, average of 3 measurements ([1]; totarol 0.0025%, 8 h): 0.311
viable count by quantitative culture (cfu/ml) ([1]; totarol 0.0025%, 16 h): 5.2 × 10^4 cfu/ml
OD, average of 3 measurements ([1]; totarol 0.0025%, 16 h): 0.314
viable count by quantitative culture (cfu/ml) ([1]; totarol 0.0025%, 24 h): 2.3 × 10^4 cfu/ml
OD, average of 3 measurements ([1]; totarol 0.0025%, 24 h): 0.317
viable count by quantitative culture (cfu/ml) ([1]; totarol 0.005%, 0 h): 3.1 × 10^5 cfu/ml
OD, average of 3 measurements ([1]; totarol 0.005%, 0 h): 0.318
viable count by quantitative culture (cfu/ml) ([1]; totarol 0.005%, 8 h): 0 cfu/ml
OD, average of 3 measurements ([1]; totarol 0.005%, 8 h): 0.318
viable count by quantitative culture (cfu/ml) ([1]; totarol 0.005%, 16 h): 0 cfu/ml
OD, average of 3 measurements ([1]; totarol 0.005%, 16 h): 0.323
viable count by quantitative culture (cfu/ml) ([1]; totarol 0.005%, 24 h): 0 cfu/ml
OD, average of 3 measurements ([1]; totarol 0.005%, 24 h): 0.327
viable count by quantitative culture (cfu/ml) ([1]; totarol 0.01%, 0 h): 1.6 × 10^5 cfu/ml
OD, average of 3 measurements ([1]; totarol 0.01%, 0 h): 0.319
viable count by quantitative culture (cfu/ml) ([1]; totarol 0.01%, 8 h): 0 cfu/ml
OD, average of 3 measurements ([1]; totarol 0.01%, 8 h): 0.323
viable count by quantitative culture (cfu/ml) ([1]; totarol 0.01%, 16 h): 0 cfu/ml
OD, average of 3 measurements ([1]; totarol 0.01%, 16 h): 0.325
viable count by quantitative culture (cfu/ml) ([1]; totarol 0.01%, 24 h): 0 cfu/ml
OD, average of 3 measurements ([1]; totarol 0.01%, 24 h): 0.328
viable count by quantitative culture (cfu/ml) ([1]; totarol 0.02%, 0 h): 2.1 × 10^5 cfu/ml
OD, average of 3 measurements ([1]; totarol 0.02%, 0 h): 0.344
viable count by quantitative culture (cfu/ml) ([1]; totarol 0.02%, 8 h): 0 cfu/ml
OD, average of 3 measurements ([1]; totarol 0.02%, 8 h): 0.332
viable count by quantitative culture (cfu/ml) ([1]; totarol 0.02%, 16 h): 0 cfu/ml
OD, average of 3 measurements ([1]; totarol 0.02%, 16 h): 0.333
viable count by quantitative culture (cfu/ml) ([1]; totarol 0.02%, 24 h): 0 cfu/ml
OD, average of 3 measurements ([1]; totarol 0.02%, 24 h): 0.334
viable count by quantitative culture (cfu/ml) ([1]; totarol 0.04%, 0 h): 3.7 × 10^5 cfu/ml
OD, average of 3 measurements ([1]; totarol 0.04%, 0 h): 0.460
viable count by quantitative culture (cfu/ml) ([1]; totarol 0.04%, 8 h): 0 cfu/ml
OD, average of 3 measurements ([1]; totarol 0.04%, 8 h): 0.416
viable count by quantitative culture (cfu/ml) ([1]; totarol 0.04%, 16 h): 0 cfu/ml
OD, average of 3 measurements ([1]; totarol 0.04%, 16 h): 0.411
viable count by quantitative culture (cfu/ml) ([1]; totarol 0.04%, 24 h): 0 cfu/ml
OD, average of 3 measurements ([1]; totarol 0.04%, 24 h): 0.379
viable count by quantitative culture (cfu/ml) ([1]; totarol 0.08%, 0 h): 6.1 × 10^5 cfu/ml
OD, average of 3 measurements ([1]; totarol 0.08%, 0 h): 0.740
viable count by quantitative culture (cfu/ml) ([1]; totarol 0.08%, 8 h): 0 cfu/ml
OD, average of 3 measurements ([1]; totarol 0.08%, 8 h): 0.523
viable count by quantitative culture (cfu/ml) ([1]; totarol 0.08%, 16 h): 0 cfu/ml
OD, average of 3 measurements ([1]; totarol 0.08%, 16 h): 0.455
viable count by quantitative culture (cfu/ml) ([1]; totarol 0.08%, 24 h): 0 cfu/ml
OD, average of 3 measurements ([1]; totarol 0.08%, 24 h): 0.441
viable count by quantitative culture (cfu/ml) ([1]; totarol 0.16%, 0 h): 1.4 × 10^5 cfu/ml
OD, average of 3 measurements ([1]; totarol 0.16%, 0 h): 0.822
viable count by quantitative culture (cfu/ml) ([1]; totarol 0.16%, 8 h): 0 cfu/ml
OD, average of 3 measurements ([1]; totarol 0.16%, 8 h): 0.564
viable count by quantitative culture (cfu/ml) ([1]; totarol 0.16%, 16 h): 0 cfu/ml
OD, average of 3 measurements ([1]; totarol 0.16%, 16 h): 0.451
viable count by quantitative culture (cfu/ml) ([1]; totarol 0.16%, 24 h): 0 cfu/ml
OD, average of 3 measurements ([1]; totarol 0.16%, 24 h): 0.438
